{
  "source": "patent US9315818B2",
  "about": "“Plant expression constructs and methods of utilizing same” (priority 2006, dated 2016)",
  "key": {"several fungi": {"tested_on": "several fungi", "details": "PRN spraying in field tests; U.S. Pat. No. 5,698,425; cited from earlier work"}, "Bemisia tabaci": {"tested_on": "Bemisia tabaci", "test": "Transfer of IL-60-BS by Bemisia tabaci", "type": "in vivo", "details": "insects fed on IL-60-BS-carrying tomato plants, transferred to healthy tomato plants; PCR", "from_the_text": "Assay for Transfer of IL-60-BS by Bemisia tabaci—Bemisia tabaci were allowed to feed on IL-60-BS-carrying tomato plants (15 insects per plant). Insects were then fed on sucrose and transferred to healthy tomato plants. DNA was extracted from both types of plants and used as a template for PCR using primers which amplify a sequence specific to IL-60 (e.g. SEQ ID NO: 16 and NO: 17) or other relevant primer pairs.\nWild TYLCV is transmitted by the whitefly, Bemisia tabaci. To test whether the viral vector is also transmitted through a viral natural transmitter, plants carrying the IL-60-BS vector were fed to B. tabaci."}, "tomato plants": {"tested_on": "tomato plants", "test": "Vector replication, spread, reporter expression and symptoms in tomato plants (PCR, GUS staining)", "type": "in vivo", "protocol": "Propagation of the virus-plasmid vectors and their administration to plants—E. coli cells were transformed with IL-60 (SEQ ID NO: 2), IL-60-BS (SEQ ID NO: 1), IL-60-BS-GUS and IL-60-BS-GFP and propagated under ampicillin selection; the construct was extracted using standard procedures. IL-60-BS was administered directly into plants, without mediation by Agrobacterium. The stem, or leaf petiole, of the recipient plant was punctured by a hypodermic needle. A capillary tube was inserted into the resultant hole, and approximately 2 microgram of DNA (in 100 μl of 5 mM Tris-HCl; pH 8.5) were pipetted into the capillary tube until fully soaked by the plant. For large-scale applications, samples were delivered into plants by the BIM-LAB instrument (Bio-OZ biotechnologies, Yad Mordechai, Israel).\nPCR analysis—PCR analysis was carried out according to standard procedures. DNA for PCR analysis was extracted as described in Bernatzky R. and Tanksley, S. D. [Theor. Appl. Genet. 72:314-321 (1986)], from leaves positioned at least 3 leaves above the point of administration. Tomato plants carry Geminivirus sequences in their genome [Ashby, M. K. et al., Plant Mol. Biol. 35, 313-321 (1997)]. Thus, it was also necessary to ascertain that PCR products were obtained from vector templates and not from native viral infection or plant sequences. Therefore, PCR tests were carried out with primers distinguishing IL-60 from TYLCV, or spanning the junction between IL-60 and the plasmid. • (i) primers distinguishing IL-60 from TYLCV; 977 (forward): gaa ggc tga act tcg aca g (SEQ ID NO: 16), 966 (reverse): att ggg ctg ttt cca tag ggc (SEQ ID NO: 17) • (ii) primers which amplify the junction between Bluescript and IL-60; 939 (forward) aga gac acc gat tca ttt caa c (SEQ ID NO: 18); 940 (reverse) gcg gat aac aat ttc aca cag (SEQ ID NO: 19).\nIn order to detect the presence of plasmids carrying reporter genes, PCR was performed with primers amplifying the reporter gene inserted into IL-60-BS. • iii) GUS specific primers: 408 (forward) gaa caa cga act gaa ctg gca gac (SEQ ID NO: 25); 167 (reverse) cag cgt aag ggt aat gcg ag (SEQ ID NO: 26). • iv) GFP specific primers: 895 (forward) ggc cga att cag taa agg aga ag (SEQ ID NO: 27); 345 (reverse) tgt gtg gac agg taa tgg (SEQ ID NO: 28).\nTYLCV, IL-60, IL-60-BS and reporter gene derivative plasmids were either agroinoculated or injected into tomato plants and their replication and spread was monitored with symptom observation, PCR analysis and Southern blot. The expression of viral and reporter genes was assessed using PCR, Northern and Western analysis, GUS staining and GFP fluorescence as described above in methods and materials."}, "plant genome": {"tested_on": "plant genome", "test": "Southern blot for integration into the plant genome", "type": "in vivo, tomato", "details": "BglII-cleaved vs uncleaved DNA", "protocol": "Molecular analysis—Southern analysis was carried out according to standard procedures (e.g as set forth in Sambrook, J. & Russel, D. W. Molecular Cloning, Third Edition. Cold Spring Harbor Laboratory Press, Cold Spring Harbor (2001)). Probes for Southern analysis were labeled by the PCR-DIG procedure (Roche Molecular Biochemicals, Basel, Switzerland). DIG labeled probes (TYLCV-CP—SEQ ID NO: 40) which hybridize with nucleotides 530-908 of the sequence identified by GenBank Accession No. X15656 were prepared according to the manufacturers protocol. Northern and Western analyses were carried out according to standard procedures. Probes for Northern analysis were labeled as described for the Southern blot analysis. Detection of GUS and GFP activities were performed according to published procedures [Jefferson, R. A., EMBO J. 6, 3901-3907 (1987); Blumenthal, A., Plant Science 142, 93-99 (1999)]. Chemiluminescent probes for Western blots were prepared with the SuperSignal West Pico kit (Pierce, Rockford, Ill., USA), using polyclonal antibodies against TYLCV-CP (Bioreba, Reinach, Switzerland) All probes were prepared according to the respective manufacturer's protocol. […]\nSouthern analysis was done without shearing, and with or without cleaving DNA with BglII. Two major bands were detected in samples from IL-60-BS, as well as TYLCV-infected plants (lanes 3-6, and lane 2 respectively of FIG. 3a). […]"}},
  "data": [
    {"compound": "O=[N+]([O-])c1c(Cl)cccc1-c1c[nH]cc1Cl", "note": "[PRN, Pyrrolnitrin]", "values": [
      {"measurement": "reduction in infectivity of several fungi", "setting": "several fungi", "result": "up to 8 fold"}
    ]},
    {"compound": "IL-60-BS: IL-60 with Bluescript II-KS+ plasmid inserted, interrupting rep and C4 (SEQ ID NO: 1)", "values": [
      {"measurement": "transmission of vector by insects to non-carrying plants", "setting": "Bemisia tabaci", "result": "did not carry the IL-60-BS vector"},
      {"measurement": "efficiency of administration into plants", "setting": "tomato plants; direct injection", "result": "over 90%"},
      {"measurement": "symptoms in injected plants", "setting": "tomato plants; more than 64 injected tomato plants", "result": "did not present any symptom"},
      {"measurement": "persistence of vector after injection", "setting": "tomato plants; tomato plants, PCR, duration of the plants life-span", "result": 12, "unit": "months"},
      {"measurement": "vector found / replication indicated by PCR, time post injection", "setting": "tomato plants; tomato plants, leaves remote from the point of injection", "result": 3, "unit": "days"},
      {"measurement": "integration into the plant genome", "setting": "plant genome", "result": "had not been integrated into the plant's genome"}
    ]},
    {"compound": "IL-60: TYLCV-derived vector (SEQ ID NO: 2) with 60-nt coat protein deletion and frame shift", "values": [
      {"measurement": "infection after agroinoculation", "setting": "tomato plants; tomato plants agroinoculated with the multimeric form, kept until fruit set", "result": "systemic, but symptomless infection"}
    ]}
  ]
}
